Source: PubChem BioAssay (NCI)
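All cell lines were grown in 96-well plates and treated with compound for 48 hours. At the GI50, growth is halved. The concentration for full growth arrest is given as TGI.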

What was measured:
Experiment in all cases: NCI anticancer screen, dose series, 48 h
A498 renal = system: A498 renal
ACHN renal = system: ACHN renal
COLO 205 colon = system: COLO 205 colon
HT29 colon = system: HT29 colon
LOX IMVI melanoma = system: LOX IMVI melanoma
SK-OV-3 ovarian = system: SK-OV-3 ovarian
SN12C renal = system: SN12C renal
SW-620 colon = system: SW-620 colon
UACC-62 melanoma = system: UACC-62 melanoma
MALME-3M melanoma = system: MALME-3M melanoma

SMILES | GI50 (A498 renal) | TGI (A498 renal) | GI50 (ACHN renal) | TGI (ACHN renal) | GI50 (COLO 205 colon) | TGI (COLO 205 colon) | GI50 (HT29 colon) | TGI (HT29 colon) | GI50 (LOX IMVI melanoma) | TGI (LOX IMVI melanoma) | GI50 (SK-OV-3 ovarian) | TGI (SK-OV-3 ovarian) | GI50 (SN12C renal) | TGI (SN12C renal) | GI50 (SW-620 colon) | TGI (SW-620 colon) | GI50 (UACC-62 melanoma) | TGI (UACC-62 melanoma) | TGI (MALME-3M melanoma) | GI50 (MALME-3M melanoma)
O=c1nc2n(-c3ccc(Cl)cc3)c3ccc([N+](=O)[O-])cc3cc-2c(=O)[nH]1 | 33.2 µM | > 100 µM | 57.4 µM | > 100 µM | 13.2 µM | 31.8 µM | 20.2 µM | 43.1 µM | 4.87 µM | 21.7 µM | 41.7 µM | > 100 µM | 14.5 µM | 44.5 µM | 6.11 µM | > 100 µM | 11.8 µM | 28.6 µM |  | 
O=C(CO)CC(=O)C(=O)Nc1ccccc1 |  |  |  | > 100 µM |  | > 100 µM |  | > 100 µM |  | > 100 µM |  | > 100 µM |  | > 100 µM |  | > 100 µM |  | > 100 µM | > 100 µM | 
Cc1ccc(/C=C2/SC(Nc3nc(-c4csc(NC5=NC(=O)/C(=C\c6ccc(C)cc6)S5)n4)cs3)=NC2=O)cc1 |  |  |  |  | 20.2 µM | > 50 µM | 21.1 µM | > 50 µM |  |  |  |  | 5.54 µM | > 50 µM |  |  | 1.95 µM | 13.6 µM |  | 
CC(=O)[CH-]C(=O)c1ccccc1.CC(=O)[CH-]C(=O)c1ccccc1.[Eu+3].[OH-].[OH3+] | > 100 µM | > 100 µM | > 100 µM | > 100 µM | > 100 µM | > 100 µM | > 100 µM | > 100 µM | > 100 µM | > 100 µM | > 100 µM | > 100 µM | > 100 µM | > 100 µM | > 100 µM | > 100 µM | > 100 µM | > 100 µM |  | 
CCC1(c2c(F)c(F)c(N)c(F)c2F)CCC(=O)NC1=O (centres undefined) |  | > 100 µM |  | > 100 µM |  | > 100 µM |  | > 100 µM |  | > 100 µM |  | > 100 µM |  |  |  | > 100 µM |  | > 100 µM | > 100 µM | 
CC(=O)OC[C@]1(O)CC[C@@]23CC1C[C@@H]2CCC1C(C)(C)CCC[C@@]13C (some centres undefined) |  |  |  | 29.3 µM |  | 33.1 µM |  | 25.7 µM |  | 23.3 µM |  | 28.9 µM |  | 24.7 µM |  | 22.5 µM |  | 26.2 µM | 29.5 µM | 
CCc1c(C#N)c(S[C@@H](C(N)=O)c2ccccc2)nc(N(C)C)c1C#N | 1.3 µM | 9.47 µM | 3.9 µM | > 100 µM | > 100 µM | > 100 µM | > 100 µM | > 100 µM | > 100 µM | > 100 µM | 6.65 µM | > 100 µM | 6.81 µM | > 100 µM | > 100 µM | > 100 µM |  |  |  | 
NC(=S)N/N=C(\Cc1nc2ccc(Cl)cc2[nH]c1=O)C(=O)Nc1ccc(Cl)cc1 |  |  |  | > 100 µM |  | > 100 µM |  | > 100 µM |  | > 100 µM |  | > 100 µM |  | > 100 µM |  | > 100 µM |  | > 100 µM |  | 
CCOc1ccccc1NC(=O)CC1SC(=Nc2ccc([N+](=O)[O-])cc2)NC1=O (centres undefined) |  |  |  | 46 µM |  | 35.1 µM |  | 50.6 µM |  | 47.1 µM |  |  |  | 53.9 µM |  | 52.7 µM |  | 39.9 µM | 51.1 µM | 
Cc1cc2nc(CCC(=O)O)c(=O)[nH]c2cc1C |  | > 100 µM |  | > 100 µM |  | > 100 µM |  | > 100 µM |  | > 100 µM |  | > 100 µM |  | > 100 µM |  |  |  | > 100 µM | > 100 µM | 
COc1c(OC)c(OC)c2c(c1OC)c(=O)c1ccccc1n2C |  | > 100 µM |  | > 100 µM |  | > 100 µM |  | > 100 µM |  | > 100 µM |  | > 100 µM |  | > 100 µM |  | > 100 µM |  | > 100 µM |  | 
O=NNc1ccc(S(=O)(=O)c2ccccc2)cn1 |  | > 100 µM |  | > 100 µM |  | > 100 µM |  | > 100 µM |  |  |  | > 100 µM |  | > 100 µM |  | > 100 µM |  | > 100 µM | > 100 µM | 
Oc1ccccc1C=NCc1ccco1 |  | > 100 µM |  | > 100 µM |  |  |  | > 100 µM |  | > 100 µM |  | > 100 µM |  | > 100 µM |  | > 100 µM |  | > 100 µM | > 100 µM | 
Cn1c(=O)nc2n(-c3cccc(Br)c3)c3ccccc3nc-2c1=O |  | 22.1 µM |  | 13.7 µM |  | 9.64 µM |  |  |  |  |  | 50.5 µM |  | 17.1 µM |  | 8.53 µM |  | 3.27 µM | 6.46 µM | 
O=C(Nc1cc(Cl)cc(Cl)c1)c1ccc(NC2=C(Cl)C(=O)N(Cc3ccc(Cl)cc3Cl)C2=O)cc1 |  |  | 19 µM | 48.9 µM | 12.1 µM | 35.4 µM | 49.3 µM | > 100 µM | 1.5 µM | 4.19 µM | 55.3 µM | > 100 µM | 24.9 µM | 60.6 µM | 1.38 µM | 13.1 µM | 18.3 µM | 38.2 µM |  | 
COC(=O)C1=C(C(=O)ON)C2C=CC1(C(Cc1ccccc1)Nc1ccccc1)O2 (centres undefined) | 14.7 µM | 27.9 µM | 1.63 µM | 2.99 µM | 1.78 µM | 3.33 µM | 1.79 µM | 3.42 µM | 1.74 µM | 3.24 µM | 14.8 µM | 28 µM | 1.99 µM | 4.45 µM |  |  | 2.24 µM | 6.66 µM | 3.33 µM | 1.76 µM
CC(=O)[CH-]C(=O)c1ccccc1.CC(=O)[CH-]C(=O)c1ccccc1.CC1(C)C2CCC1(C)C([O-])C2.CC1(C)C2CCC1(C)C([O-])C2.[Ti+4] |  |  | 54.4 µM | > 100 µM | 38.4 µM | > 100 µM | 56.7 µM | > 100 µM | 25.1 µM | > 100 µM | 20.8 µM | 74.1 µM | 27.9 µM | > 100 µM | 36.6 µM | > 100 µM | 16.7 µM | 51.3 µM | 30.2 µM | 12.4 µM
O=C1C(Cl)=C(Nc2cccc(Cl)c2)C(=O)N1Cc1ccccc1Cl | 11.8 µM | 24.8 µM | 4.36 µM | 17.1 µM |  |  | 5.45 µM | > 100 µM | 1.64 µM | 3.76 µM |  |  | 2.32 µM | 8 µM | 2.82 µM | 18.6 µM | 3.05 µM | 12.8 µM |  | 
CCOc1ccc(-c2nonc2NC(=O)c2cccc(C)c2)cc1OCC |  |  | > 100 µM | > 100 µM | > 100 µM | > 100 µM | > 100 µM | > 100 µM | > 100 µM | > 100 µM | > 100 µM | > 100 µM | > 100 µM | > 100 µM | > 100 µM | > 100 µM | > 100 µM | > 100 µM | > 100 µM | > 100 µM
CN(C)c1ccc([O][Bi]([Cl])[Cl])cc1 |  |  |  |  | > 100 µM | > 100 µM | > 100 µM | > 100 µM | > 100 µM | > 100 µM | > 100 µM | > 100 µM | > 100 µM | > 100 µM | > 100 µM | > 100 µM | > 100 µM | > 100 µM | > 100 µM | > 100 µM
COc1ccc(/C=C/C(=O)c2ccc(SC)cc2)cc1OC |  |  | 11.7 µM | 27.6 µM | 21 µM | > 100 µM | 4.57 µM | 87.5 µM | 4.12 µM | 15.5 µM | 34.1 µM | > 100 µM | 13 µM | 26.5 µM | 4.44 µM | > 100 µM | 12.7 µM | 27.1 µM |  | 
O=S1CCS(=O)CCS(=O)CC1 (centres undefined) |  |  |  |  |  | > 100 µM |  | > 100 µM |  | > 100 µM |  | > 100 µM |  | > 100 µM |  | > 100 µM |  | > 100 µM |  | 
COC(=O)C(=O)OC1(C(C)=O)CC2(c3ccccc3)OC1(c1ccccc1)c1ccccc12 (centres undefined) |  | 33.4 µM |  |  |  | 29.5 µM |  | 30.7 µM |  | 30.4 µM |  | 95.5 µM |  | 28.6 µM |  | 30.3 µM |  | 28.1 µM | 35.2 µM | 
CC(C)(C)c1nn(-c2ccccc2)c2c1C(=O)CSC(c1ccccc1Cl)N2 (centres undefined) | 0.353 µM | 3.78 µM | 4.87 µM | 19.3 µM | 2.51 µM | 6.01 µM | 1.97 µM | 6.55 µM | 2.74 µM | 15.7 µM | 1.78 µM | 6.17 µM | 3.26 µM | 14.7 µM |  |  | 0.775 µM | 15 µM | 32.6 µM | 14.7 µM
Cc1ccc(-n2c3c(c4c(CN(C)C)c(O)ccc42)CCc2ccccc2C3=O)cc1 | 15.1 µM | 49.1 µM | 16.3 µM | 36 µM | > 100 µM | > 100 µM | > 100 µM | > 100 µM | 15.8 µM | 29.5 µM | > 100 µM | > 100 µM | 16.3 µM | 30.9 µM | 15.1 µM | 33.7 µM | 17 µM | 30.9 µM |  | 
Clc1ccc2c(c1)C1C(CO2)C(c2ccccc2)=NN1c1ccccc1 (centres undefined) |  | > 100 µM |  | > 100 µM |  | > 100 µM |  | > 100 µM |  |  |  | > 100 µM |  |  |  | > 100 µM |  |  | > 100 µM | 
Fc1ccc2c(c1)c(-c1nc(-c3c[nH]c4ncccc34)cs1)cn2CCCN1CCCCC1 | 2.57 µM | 6.48 µM |  |  | 1.73 µM | 3.48 µM | 1.68 µM | 3.24 µM |  |  | 1.81 µM | 3.43 µM | 1.74 µM | 3.31 µM | 1.92 µM | 3.75 µM |  |  |  | 
